Data on seven molecules can be found in patent US8273357B2, “Antigen-carbohydrate conjugates” (Massachusetts Institute of Technology, priority 2004, dated 2012).

The test system of assay [1] is CD11c+ dendritic cells / OTII T cells. Description: Antigen presentation assay, purified CD11c+ dendritic cells and purified OTII T cells. It counts as cell-based, mouse. As to the method: FIGS. 4A, 4B, 4C and 4D are graphs showing that CD11c^+ dendritic cells are the main antigen presenting cells presenting 3-1-targeted antigen. […] 1.5×10^4 Splenic CD11c^+ dendritic cells purified from C57BL/6 mice and 3.0×10^4 purified OTII T cells were incubated with OVA (starting concentration 300 μg mL^−1) or (OVA)-3-1 (starting concentration 25 μg mL^−1) in graded doses for eight-four hours with [^3H]thymidine (1 μCi) added for the last twelve hours. […] Purified CD11c^+ dendritic cells and OTII T cells were incubated with (OVA)-3-1 (25 μg mL^−1)±each potential inhibitor (100 μg mL^−1). T cell proliferation was determined as for FIG. 4A. […] CD11c^+ dendritic cells and OTII T cells were incubated with OVA or (OVA)-3-1±lipopolysaccharide ([…]). Also included are all ‘non-dendritic cells’ (macrophages and B cells) obtained during the purification of the dendritic cells. T cell proliferation was determined as described in FIG. 4A. […] Supernatants from cells described in FIG. 4C were collected at forty-eight and seventy-two hours and measured for IFN-γ by ELISA; the values presented are from the seventy-two hour time point. All measurements here were performed in triplicate.
To confirm that the increased T cell proliferation observed with (OVA)-3-1 was due to the selective uptake of this conjugate by dendritic cells and not B cells or macrophages, purified CD11c^+ dendritic cells were prepared from wild-type C57BL/6 mice and the OVA-specific T cells from transgenic OTII mice (see Materials & Methods). The in vitro antigen presentation assays described above were then repeated. […] By comparison, >50-fold more unmodified OVA was required to obtain similar levels of T cell proliferation. When B cells and macrophages were used as antigen-presenting cells in place of purified dendritic cells, the resulting T cell responses were negligible (FIG. 4C), providing strong confirmation that CD11c^+ dendritic cells are the main antigen-presenting cells mediating uptake and presentation of (OVA)-3-1 to OTII T cells.
(§1) Pooled inguinal lymph nodes were dissociated in 10% Fetal Bovine Serum RPMI (supplemented with 2 mM L-glutamine) and either mechanically dissociated between two glass slides or, to improve the overall cell yield, incubated in the presence of collagenase (Boehringer) and EDTA for 25 minutes at 37° C./5% CO2 to dissociate DC-T cell clusters. For antigen presentation assays with whole splenocytes, isolated spleens were injected with collagenase/EDTA, gently teased apart and incubated as described above. Splenocytes were cultured in 96-well round-bottom plates at a density of 3×10^5 cells/0.2 mL. In antigen presentation assays utilizing purified dendritic cells and T cells, dendritic cells were isolated from the spleens of C57BL/6 mice following collagenase/EDTA treatment by labeling the dendritic cells with commercially available magnetic microbeads linked to an anti-CD11c^+ antibody (Miltenyi Biotec, Bergisch Gladbach, Germany) (according to the Miltenyi Biotec protocol) and separating labeled Dendritic cells from non-dendritic cells by application of a magnetic field. Similarly, purified […] T cells were obtained from spleens of OTII transgenic mice using magnetic beads Dynal (Oslo, Norway). Purified dendritic cells and T cells were seeded onto 96-well plates round-bottom Plates at a 1:2 DC:T cell ratio unless stated otherwise in the Figures.

For assay [2], the target named is T1, DC-SIGN (Homo sapiens, UniProt Q9NNX6).
T1 sequence (Q9NNX6 1-404): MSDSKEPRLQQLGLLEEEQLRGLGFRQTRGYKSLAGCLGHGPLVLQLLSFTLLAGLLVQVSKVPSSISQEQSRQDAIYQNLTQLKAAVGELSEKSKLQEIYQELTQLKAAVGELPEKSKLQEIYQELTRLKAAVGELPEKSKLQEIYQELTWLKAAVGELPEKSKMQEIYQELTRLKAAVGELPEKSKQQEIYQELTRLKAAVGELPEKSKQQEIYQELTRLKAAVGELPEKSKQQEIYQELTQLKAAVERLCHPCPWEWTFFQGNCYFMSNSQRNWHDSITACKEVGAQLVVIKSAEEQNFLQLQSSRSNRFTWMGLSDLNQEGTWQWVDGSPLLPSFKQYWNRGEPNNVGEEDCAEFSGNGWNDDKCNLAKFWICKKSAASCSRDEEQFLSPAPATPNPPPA
Particulars: carbohydrate profiling by another group; cited from earlier work.

The test system of assay [3] is OTII (CD4+) T cells in unfractionated splenocytes. The assay is described as follows: Antigen presentation assay, unfractionated OTII splenocytes, [3H]thymidine T cell proliferation. The class given is cell-based, mouse. The settings on record: OTII splenocytes. As to the method: FIG. 2B is a graph showing that oligosaccharide modification of OVA elicits stronger presentation to OTII T cells than unmodified OVA. Unfractionated OTII splenocytes (3×10^5/well) were incubated with graded doses of OVA or oligosaccharide-modified OVA for eighty-four hours with [^3H]thymidine (1 μCi) added for the last 12 hours. Thereafter [^3H]thymidine incorporation levels were measured and plotted. FIG. 2C is a graph showing that observed enhancements in antigen presentation of (OVA)-3-1 to T cells is carbohydrate dependent. Splenocytes were incubated with antigen as in (B)±(BSA)-3-1 (10 μg mL^−1). In cases where (OVA)-3-1 was added to OVA wells to assess the possibility of direct activation of T cells (see text), (OVA)-3-1 was present at 50 ng mL^−1; incubations were performed for seventy-two hours with [^3H]thymidine (1 μCi) added for the last 12 hours. FIG. 2D is a graph showing that the receptor mediated uptake of (OVA)-3-1 has a different binding profile than that observed for DC-SIGN. Unfractionated splenocytes were incubated with OVA or (OVA)-3-1±mBSA or Lewis^x-BSA (each at 100 μg mL^−1). Incubations were performed for seventy-two hours with [^3H]thymidine (1 μCi) added for the last twelve hours. All values reported are the mean of triplicate measurements.
The ability of these conjugates to enhance antigen uptake by dendritic cells was assessed in comparison to unmodified OVA by incubating graded doses of conjugate and OVA with unfractionated splenocytes (containing T cells, B cells, dendritic cells, macrophages) isolated from OTII (CD4^+) transgenic mice. The ability of dendritic cells to present antigenic peptides derived from targeted proteins was measured as a function of T cell proliferation in response to those presented peptides. T cell proliferation is quantified by [^3H]thymidine incorporation during cellular division.
as §1

Assay [4] has as its target T2, (OVA)-3-1, ovalbumin conjugated to the synthetic high-mannose nonasaccharide 3-1 (fluorophore-labeled in the … (UniProt P01012 2-386, average of three saccharides of structure 3-1 per molecule of OVA, coupled through the Sulfo-SMCC maleimide crosslinker to the thiol-bearing linker of the saccharide (sites not given); fluorophore …).
T2 construct: Neoglycoprotein; also called fluorophore-labeled (OVA)-3-1; carbohydrate-OVA conjugate
T2 sequence (looked up): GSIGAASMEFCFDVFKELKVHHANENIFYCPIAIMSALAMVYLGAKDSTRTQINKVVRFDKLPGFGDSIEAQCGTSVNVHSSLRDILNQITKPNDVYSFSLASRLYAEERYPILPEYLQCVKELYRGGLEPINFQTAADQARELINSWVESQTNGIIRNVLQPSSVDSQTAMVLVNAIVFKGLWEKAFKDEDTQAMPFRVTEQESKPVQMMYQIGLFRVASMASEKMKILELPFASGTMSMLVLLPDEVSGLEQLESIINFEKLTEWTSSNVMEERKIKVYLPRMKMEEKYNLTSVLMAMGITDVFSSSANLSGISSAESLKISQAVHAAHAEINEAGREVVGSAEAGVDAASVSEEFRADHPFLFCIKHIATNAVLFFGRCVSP
The assay is described as follows: binding and internalization of fluorophore-labeled (OVA)-3-1 on a cell line stably expressing CIRE. As to the method: To identify the receptor mediating uptake of the oligosaccharides employed herein, the murine DC-SIGN homolog CIRE[10] was analyzed as a potential receptor; a cell line stably expressing this lectin was used to assay for binding and internalization of fluorophore-labeled 3-1 and fluorophore-labeled (OVA)-3-1. […] The receptor may be identified biochemically, for example, by cross-linking it to bound (OVA)-3-1 and immunoprecipitating the complex with polyclonal sera raised against ovalbumin. Identification of the receptor would enable the determination of its human homolog.

The target of assay [5] is T3, CIRE (Mus musculus, UniProt Q91ZX1).
T3 construct: expressed in transfected cells
T3 sequence (Q91ZX1 1-238): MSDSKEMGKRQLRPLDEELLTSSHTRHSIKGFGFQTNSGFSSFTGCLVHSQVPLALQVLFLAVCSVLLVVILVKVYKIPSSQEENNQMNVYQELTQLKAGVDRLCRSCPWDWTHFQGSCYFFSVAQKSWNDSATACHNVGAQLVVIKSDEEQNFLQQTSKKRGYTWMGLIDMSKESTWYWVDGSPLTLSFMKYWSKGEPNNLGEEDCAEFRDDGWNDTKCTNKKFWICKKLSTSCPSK
The assay is described as follows: Binding and internalization by a cell line stably expressing CIRE. The class given is cell-based, murine. As to the method:
To identify the receptor mediating uptake of the oligosaccharides employed herein, the murine DC-SIGN homolog CIRE^10 was analyzed as a potential receptor; a cell line stably expressing this lectin was used to assay for binding and internalization of fluorophore-labeled 3-1 and fluorophore-labeled (OVA)-3-1. […] The receptor may be identified biochemically, for example, by cross-linking it to bound (OVA)-3-1 and immunoprecipitating the complex with polyclonal sera raised against ovalbumin. Identification of the receptor would enable the determination of its human homolog.

Setting [6] is: (OVA)-3-1 25 μg mL^−1, inhibitor 100 μg mL^−1.

On to `CC(=O)N[C@H]1C(O)O[C@H](CO)[C@@H](O[C@@H]2O[C@H](CO)[C@H](O)[C@H](O)[C@H]2O)[C@@H]1O[C@@H]1O[C@@H](C)[C@@H](O)[C@@H](O)[C@@H]1O` (stereo partly drawn) [Lewis^x, reference compound], for which the “inhibitory effect on (OVA)-3-1 presentation by dendritic cells” value in assay [1] (setting [6]) was “marginal effects”. In addition, the “recognition by DC-SIGN” value in assay [2] is recorded as “can recognize”.

Consider “bovine serum albumin [BSA, reference compound]”, for which the “effect of co-incubated protein on (OVA)-3-1 uptake / OTII proliferation” value in assay [3] ((BSA)-3-1 10 μg mL^−1, 72 h) is recorded as “did not affect”.

Regarding “invertase: high-mannose-bearing glycoprotein [reference compound]”, in assay [1] (setting [6]), the “reduction (inhibition) of (OVA)-3-1 presentation” value is recorded as 18%. Besides, the “concentration giving inhibition of (OVA)-3-1 presentation” value in assay [1] (similar level of inhibition as mannose) was found to be 0.5 µM.

For mannan [reference compound], the “reduction (inhibition) of (OVA)-3-1 presentation” value in assay [1] (setting [6]) was 31%.

B1: CIRE, murine DC-SIGN homolog (receptor)
chain: T3 sequence (Q91ZX1 1-238)
Regarding B1, the binding result in assay [4] is given as “no binding”.

B2: (OVA)-3-7: ovalbumin conjugate of monosaccharide galactose 3-7 (conjugate, UniProt P01012 2-386, looked up)
Ovalbumin: T2 sequence (looked up)
modifications: carbohydrate conjugate
Turning to B2, the “enhancement of antigen uptake and presentation to T cells (T cell proliferation) compared to unmodified OVA” value in assay [3] (graded doses) is given as “did not promote increased presentation at all”.

B3: fluorophore-labeled (OVA)-3-1: fluorophore-labeled (OVA)-3-1 (conjugate)
chain: T2 sequence (looked up)
B3: the “binding and internalization by CIRE-expressing cell line” value in assay [5] is reported as “did not reveal any interactions”.
